{"source": "patent US20060249167A1", "about": "“Flavor ingredients for cooling preparations” (priority 2003, published 2006)", "key": {"[1]": {"assay": "Organoleptic (odor and flavor) description of the compound and its isomers", "conditions": "in vivo"}}, "data": [{"smiles": "CC1CCC(C(C)C)C2(C1)OC(=O)C(C)O2", "note": "(stereo not shown) [Compound (I), 6-isopropyl-3,9-dimethyl-1,4-dioxaspiro[4.5]decan-2-one]", "values": [{"measurement": "flavor", "setting": "[1]", "result": "minty, fresh, piperita type"}, {"measurement": "odor", "setting": "[1]", "result": "minty, menthone type odor"}]}, {"smiles": "CC(C)[C@@H]1CC[C@@H](C)CC12OC(=O)[C@H](C)O2", "note": "(stereo partly drawn) [Compound of example 1a, (3S, 6S, 9R)-6-isopropyl-3,9-dimethyl-1,4-dioxaspiro[4.5]decan-2-one]", "values": [{"measurement": "flavor", "setting": "[1]", "result": "interesting minty note with refreshing effect"}]}, {"smiles": "CC(C)[C@@H]1CC[C@@H](C)C[C@@]12OC(=O)[C@H](C)O2", "note": "[Compound of example 1b, (3S, 5R, 6S, 9R)-6-isopropyl-3,9-dimethyl-1,4-dioxaspiro[4.5]decan-2-one]", "values": [{"measurement": "flavor", "setting": "[1]", "result": "more of the cooling type with a minty connotation"}, {"measurement": "flavor", "setting": "[1]; listed as (3S,5R,6S,9R) isomer", "result": "stronger and more lingering effect"}]}, {"smiles": "CC(C)[C@@H]1CC[C@@H](C)C[C@]12OC(=O)[C@H](C)O2", "note": "[Compound of example 1c, (3S, 5S, 6S, 9R)-6-isopropyl-3,9-dimethyl-1,4-dioxaspiro[4.5]decan-2-one]", "values": [{"measurement": "melting point", "result": "33 to 34", "unit": "°C"}, {"measurement": "flavor", "setting": "[1]", "result": "more of the cooling type with a minty connotation"}]}]}
